pEC50: −log10 of the molar value. Where a name gives a salt, the structure may show the parent alone. Read-outs that look alike come from different tables or passages of the source.
What was measured:
[1] = Cytotoxicity assay, MRC-5SV2 cells, resazurin, 3 days; type: cell-based; conditions: human, MRC-5SV2 human lung fibroblast cells, MRC-5 cells, highest concentration 64 µM
Method: The series of final products (13–69) was investigated in vitro on the human fetal lung fibroblast cell line MRC-5 (Table 1) to assess cytotoxicity toward normal (i.e., non-malignant) human cells. […] As explained earlier, these are important pathogens for humans or cattle (T. b. brucei) and a persistent need for new therapeutics exists for these parasites. As a part of the antiparasitic tests, cytotoxicity against primary mouse macrophages (PMMs) was also evaluated. These murine cells serve as host cells for parasites in the L. infantum assay. Therefore, the murine macrophage assay not only offers additional cytotoxicological insight but is also essential to interpreting the readout of the L. infantum assay.
(§1) The MRC-5SV2 human lung fibroblast cell line was cultured in MEM + Earle’s salts-medium, supplemented with 2 mM L-glutamine, 16.5 mM NaHCO3, and 5% inactivated fetal calf serum. For evaluating the antileishmanial activity, the L. infantum MHOM/MA(BE)/67 strain was used. This strain was maintained in a Golden hamster (Mesocricetus auratus). Amastigotes were collected from the spleen of an infected donor hamster using differential centrifugation. Primary peritoneal mouse macrophages were used as host cells and were collected 2 days after peritoneal stimulation with a 2% potato starch suspension. For the intracellular T. cruzi assays, the Tulahuen CL2 strain was used that expresses β-galactosidase. The strain was maintained in MRC-5SV2 cells in MEM medium. The T. b. brucei Squib 427 strain or T. b. rhodesiense STIB-900 strain was used for screening against the extracellular African trypanosomes. The strains were maintained in Hirumi’s Modified Iscove’s medium-9 (HMI-9), supplemented with 10% inactivated fetal calf serum. All cultures and assays were performed at 37 °C with 5% CO2.
(§2) Compound stock solutions were prepared in 100% DMSO at 20 mM. The compounds were serially pre-diluted by robotic plate production (4-fold) in DMSO followed by a further (intermediate) dilution in demineralized water to assure a final in-test DMSO concentration of <1%. Identical test plates containing 10 µL of the different concentrations of each compound were produced for the different assays. For the cytotoxicity assays, 5 concentrations per compound were tested (64–16–4–1–0.25 µM). For the parasitic assays, 10 concentrations per compound were tested, ranging from 64 µM to 0.2 nM.
Assays were performed in sterile 96-well microtiter plates, each well containing 10 µL of the watery compound dilutions together with 190 µL of MRC-5SV2 inoculum (1.5 × 10^5 cells/mL). Cell growth was compared to untreated control wells (100% cell growth) and medium-control wells (0% cell growth). After 3 days incubation, MRC-5 viability was assessed fluorimetrically after addition of 50 μL resazurin per well (final concentration of 10 µg mL^−1). After 4 h at 37 °C, fluorescence was measured (λex 550 nm, λem 590 nm). The results were expressed as % reduction in cell growth/viability compared to positive (100% growth–0% inhibition) and negative (0% growth–100% inhibition) control wells from which EC50 values (50% effective concentrations) were derived using an excel macro that calculates the interpolation of the concentrations corresponding to the flanking points, just above and just below 50% inhibition.

[2] = test system: Trypanosoma cruzi Tulahuen CL2 strain; test: Intracellular T. cruzi assay in MRC-5 cells (β-galactosidase/CPRG, 7 days); type: cell-based; conditions: Trypanosoma cruzi, TULAHUEN, MRC5, 168 h, intracellular in MRC-5 cells
Method: as §1, §2
MRC-5 cells were infected in 96-well plates using a harvested T. cruzi inoculum (4 × 10^3 MRC-5 cells/well + 4 × 10^4 parasites/well) and exposed to 10 µL of the compound dilutions (200 µL/well total volume). Parasite growth determined after 7 days of incubation and compared to untreated infected controls following the addition of the substrate CPRG (chlorophenolred ß-D-galactopyranoside): 50 µL/well of a stock solution containing 15.2 mg CPRG + 250 µL Nonidet in 100 mL PBS. The absorbance was measured spectrophotometrically at 540 nm after 4 h incubation at 37 °C and EC50 values were calculated.

[3] = test system: L. infantum MHOM/MA(BE)/67 strain; test: L. infantum intracellular amastigote assay in PMM (Giemsa, 5 days); type: cell-based, Leishmania infantum; conditions: Leishmania infantum, 120 h; for pEC50: amastigotes in PMM, 5 days, read-out: L. inf. (EC50); for EC50: read-out: L. inf. (EC50, µM), amastigotes in PMM, 5 days
Method: as §1, §2
Primary peritoneal mouse macrophages (PMMs) were prepared in RPMI-1640 medium, supplemented with 2 mM L-glutamine, 16.5 mM NaHCO3, and 5% inactivated fetal calf serum. The macrophages are infected after 48 h with spleen-derived L. infantum amastigotes (3 × 10^4 PMM + 4.5 × 10^5 parasites/well). The compounds were added after 2 h of infection. After 5 days incubation, parasite burdens (mean number of amastigotes/macrophage) were assessed microscopically after staining with a 10% Giemsa solution and EC50 values were calculated.

[4] = test system: T. b. brucei Squib 427 strain; test: T. b. brucei growth assay (resazurin, 3 days); type: cell-based, Trypanosoma brucei brucei; conditions: Trypanosoma brucei, 72 h; for pEC50: 3 days, read-out: T. b. bruc. (EC50); for EC50: read-out: T. b. bruc. (EC50, µM), 3 days
Method: as §1, §2
(§3) Parasite suspensions (1.5 × 10^4 T. b. brucei/well or 4 × 10^3 T. b. rhodesiense/well) in HMI-9 medium were exposed in a total volume of 200 µL to 10 µL of the compound dilutions Parasite growth was assessed fluorimetrically after 3 days of incubation by the addition of 50 µL resazurin per well. After 6 h (T. b. rhodesiense) or 24 h (T. b. brucei) at 37 °C, fluorescence was measured (λex 550 nm, λem 590 nm), from which viability and EC50 values could be determined.

[5] = test system: T. b. rhodesiense STIB-900 strain; test: T. b. rhodesiense growth assay (resazurin, 3 days); type: cell-based, Trypanosoma brucei rhodesiense; conditions: Trypanosoma brucei, RHODESIENSE, 72 h; for pEC50: 3 days, read-out: T. b. rhod. (EC50); for EC50: read-out: T. b. rhod. (EC50, µM), 3 days
Method: as §1, §2, §3

Compound	EC50 at 3 days [1]	pEC50 [2]	pEC50 [3]	pEC50 [4]	pEC50 [5]	EC50 [3]	EC50 [4]	EC50 [5]
FC(F)c1cn(-c2ccccc2)nc1-c1ccc2c(c1)OCCO2 [Compound 53, 4-(difluoromethyl)-3-(2,3-dihydrobenzo[b][1,4]dioxin-6-yl)-1-phenyl-1H-pyrazole]	21.8 µM	5.19	4.49	4.52	4.72	–	–	–
O=C(NCc1cn(-c2ccccc2)nc1-c1ccc2c(c1)OCCO2)Nc1ccc(F)cc1 [Compound 54, 1-((3-(2,3-dihydrobenzo[b][1,4]dioxin-6-yl)-1-phenyl-1H-pyrazol-4-yl)methyl)-3-(4-fluorophenyl)urea]	> 64 µM	< 4.19	< 4.19	< 4.19	< 4.19	–	–	–
c1ccc(-n2cc(CNCCc3ccccn3)c(-c3ccc4c(c3)OCO4)n2)cc1 [Compound 59, N-((3-(benzo[d] [1,3]dioxol-5-yl)-1-phenyl-1H-pyrazol-4-yl)methyl)-2-(pyridin-2-yl)ethan-1-amine hydrochloride]	26.6 µM	5.17	–	–	–	8.06 µM	1.64 µM	1.61 µM
CNC(=O)c1cc(Oc2ccc(NCc3cn(-c4ccccc4)nc3-c3ccc4c(c3)OCO4)cc2)ccn1 [Compound 60, 4-(4-(((3-(benzo[d] [1,3]dioxol-5-yl)-1-phenyl-1H-pyrazol-4-yl)methyl)amino)phenoxy)-N-methylpicolinamide]	60.7 µM	< 4.19	4.49	< 4.19	5.29	–	–	–
COc1ccc(-c2nn(-c3ccccc3)cc2CNCCc2ccccn2)cc1 [Compound 64, N-((3-(4-methoxyphenyl)-1-phenyl-1H-pyrazol-4-yl)methyl)-2-(pyridin-2-yl)ethan-1-amine hydrochloride]	28.9 µM	5.15	–	–	–	8.06 µM	1.7 µM	1.57 µM
COc1ccc(-c2nn(-c3ccccc3)cc2CN2CCCC2)cc1 [Compound 65, 3-(4-methoxyphenyl)-1-phenyl-4-(pyrrolidin-1-ylmethyl)-1H-pyrazole oxalate]	32 µM	4.54	4.48	5.16	5.19	–	–	–
COc1ccc(-c2nn(-c3ccccc3)cc2CN2CCOCC2)cc1 [Compound 66, 4-((3-(4-methoxyphenyl)-1-phenyl-1H-pyrazol-4-yl)methyl)morpholine hydrochloride]	> 64 µM	4.65	–	–	–	34.6 µM	27.8 µM	20.5 µM
COc1ccc(-c2nn(-c3ccccc3)cc2COCc2ccc(F)cc2)cc1 [Compound 68, 4-(((4-fluorobenzyl)oxy)methyl)-3-(4-methoxyphenyl)-1-phenyl-1H-pyrazole]	> 64 µM	5.27	4.43	4.53	4.94	–	–	–

— publication PMC11487390, “Design and Synthesis of 1,3-Diarylpyrazoles and Investigation of Their Cytotoxicity and Antiparasitic Profile” (International Journal of Molecular Sciences, 2024)
